# Experimental data from ChEMBL document CHEMBL1137977, “HCV NS5B polymerase-bound conformation of a soluble sulfonamide inhibitor by 2D transferred NOESY” (Bioorg Med Chem Lett, 2004).
# pIC50: −log10 of the molar value.
# Target: RNA-directed RNA polymerase (Hepacivirus hominis, UniProt O39930)
# Assay: Inhibitory concentration for NS5B RNA-dependent RNA polymerase of Hepatitis C virus
# Chain of RNA-directed RNA polymerase (O39930 whole entry): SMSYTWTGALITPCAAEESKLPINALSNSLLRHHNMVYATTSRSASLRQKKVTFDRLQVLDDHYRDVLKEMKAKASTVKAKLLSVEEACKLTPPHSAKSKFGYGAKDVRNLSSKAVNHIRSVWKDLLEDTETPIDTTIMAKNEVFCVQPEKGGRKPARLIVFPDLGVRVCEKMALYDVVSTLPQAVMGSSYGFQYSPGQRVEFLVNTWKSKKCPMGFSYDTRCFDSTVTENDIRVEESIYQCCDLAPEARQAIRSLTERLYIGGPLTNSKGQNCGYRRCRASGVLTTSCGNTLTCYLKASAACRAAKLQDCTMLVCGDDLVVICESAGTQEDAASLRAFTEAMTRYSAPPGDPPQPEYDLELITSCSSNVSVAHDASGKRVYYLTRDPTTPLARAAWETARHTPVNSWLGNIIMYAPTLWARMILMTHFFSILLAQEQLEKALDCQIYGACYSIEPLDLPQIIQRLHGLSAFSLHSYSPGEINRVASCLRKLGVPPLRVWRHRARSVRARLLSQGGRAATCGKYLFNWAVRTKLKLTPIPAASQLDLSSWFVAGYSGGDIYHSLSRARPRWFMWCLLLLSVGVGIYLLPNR
row,pIC50,Structure (SMILES)
1,4.82,O=C(O)c1sc(-c2ccccc2)cc1NS(=O)(=O)c1ccc(C(F)(F)F)cn1
2,4.85,Cc1cc(S(=O)(=O)Nc2cc(-c3ccccc3)sc2C(N)=O)c(C)cc1Cl
3,5.40,O=C(O)c1sc(-c2ccc(F)cc2)cc1NS(=O)(=O)c1ccccn1
4,5.30,Cc1cc(S(=O)(=O)Nc2cc(-c3ccccc3)sc2C(=O)O)c(C)cc1Cl
5,5.40,Cc1ccccc1S(=O)(=O)Nc1cc(-c2ccncc2)sc1C(=O)O
6,4.60,O=C(O)c1sc(-c2ccccc2)cc1NS(=O)(=O)c1ccccn1
